Assay results taken from patent US20050044578A1, “Rat highly sensitive to carcinogen” (priority 2001, published 2005).

Legend:
[1] = system: transgenic rats; assay: Sensitivity to hepatocarcinogenesis by diethyl nitrosamine, GST-P-positive foci in liver, transgenic rats (mutant connexin 32); format: in vivo, rat; settings: 200 mg/kg intraperitoneally
Protocol: (§1) The livers taken from each of the above-mentioned rats were fixed with acetone and embedded in paraffine, sliced, and then GST-P, a precancerous hepatic lesion marker, was immunostained for visualization (FIG. 4, left). Further, the number and the area of positive foci per unit area in the GST-P-positive foci were measured with an image analyzer (IPAP, Olympus) (FIG. 4, right).

[2] = system: wild-type rats; assay: Sensitivity to hepatocarcinogenesis by diethyl nitrosamine, GST-P-positive foci in liver, wild-type rats; format: in vivo, rat; settings: eight-week-old male, 200 mg/kg intraperitoneally, 20 weeks after the administration, per 1 cm^2
Protocol: as §1

[3] = transgenic rats, eight-week-old male, 20 weeks after the administration, liver, per 1 cm^2

`CCN(CC)N=O` [diethyl nitrosamine] was tested, and the “sensitivity of the transgenic rats to the hepatocarcinogen” value ([1]; transgenic rats in comparison to wild-type rats, 20 weeks) was “extremely high sensitivity”, the “area of the GST-P-positive foci per unit area (1 cm^2)” value [1, 3] was 3.32 mm^2 and the “number of the GST-P-positive foci per unit area (1 cm^2)” value [1, 3] was 79.8. The “area of the GST-P-positive foci per unit area (1 cm^2)” value [2] was 0.2 mm^2 and the “number of the GST-P-positive foci per unit area (1 cm^2)” value [2] was 11.1.
